What was measured:
TBI = conditions: University of Washington trial initiated in 1999, preliminary data; cited from earlier work
stroke = conditions: intravenous, up to 12 hours following stroke onset, 2589 patients (Muir et al., 2004); cited from earlier work
brain injury = assay: Loss of cognitive functions (ability to learn a new spatial task) following brain injury; assay type: in vivo, animals; conditions: single agent alone
Description: The discovery of a synergistic effect between PEG, a biomembrane sealing agent, and magnesium is highly significant as it can lead to the development of therapeutic formulations with improved efficacy for the treatment of neuronal trauma, inflammatory and painful conditions.

pain = conditions: Crosby et al., 2000; cited from earlier work

SMILES | outcome of magnesium sulfate therapy in TBI patients (TBI) | clinical improvement after stroke (stroke) | effect on the loss of cognitive functions following brain injury (brain injury) | duration of analgesic effects (pain) [h]
O=S(=O)([O-])[O-].[Mg+2] [magnesium sulfate] | negative | no significant improvement |  | 
[Mg+2] [magnesium] |  |  | no effect | ≤ 4

From patent US20090263507A1, “BIOLOGICAL MARKERS AND RESPONSE TO TREATMENT FOR PAIN, INFLAMMATION, NEURONAL OR VASCULAR INJURY AND METHODS OF USE” (Warsaw Orthopedic, Inc., priority 2008, published 2009)
